Here are results for two molecules from patent US20250269018A1, “COMBINED CANCER THERAPY WITH AN EPITHELIAL CELL ADHESION MOLECULE (EPCAM) INHIBITOR AND A HEPATOCYTE GROWTH FACTOR RECEPTOR (HGFR) INHIBITOR” (ACADEMIA SINICA, priority 2021, published 2025).

The subject of assay [1] is GSK3β, active β-catenin and Snail. Briefly: Western blotting of GSK3β, active β-catenin, Snail and EMT proteins in HCT116 cells. It counts as cell-based, human. As for the experimental part:
FIGS. 4A to 4L. EpEX induces EMT and invasion by stabilizing β-catenin and Snail through decreasing GSK3β activity. (FIG. 4A) The protein expression of EMT markers and regulators was detected by Western blotting in Wild-type (WT) or EpCAM knockout (KO) HCT116 cells after EpEX treatment. (FIG. 4B) Cell invasion was examined by Transwell chamber assay with matrigel. (FIG. 4C) WT or KO HCT116 and HT29 cells were starved for 16 h, then treated with 0.5 nM of HGF with 2% FBS for 24 h. EMT-related protein expression (E-cadherin, vimentin, and Snail) was examined by Western blotting. (FIG. 4D) WT or KO HCT116 and HT29 cells were treated with HGF (0.5 nM) for 24 h. Invasion by HCT116 and HT29 cells was examined by Transwell chamber assay with matrigel. (FIG. 4E) HCT116 and HT29 cells were starved for 16 h, then treated with 0.5 nM of HGF with 2% FBS for 24 h. EMT-related protein expression (E-cadherin, Vimentin, and Snail) was examined by Western blotting. (FIG. 4F) HCT116 and HT29 cells were starved for 16 h, then treated with 0.5 nM of HGF with 2% FBS for 24 h. Cell invasion was assessed by a Transwell assay with matrigel. (FIG. 4G) HCT116 cells after shLuc and shHGFR treatment were treated with 50 nM of EpEX-His. HCT116 cells after shLuc and shHGFR treatment were treated with 50 nM of EpEX-His with 2% FBS for 24 h. EMT-related protein expression (E-cadherin, Vimentin, and Snail) was examined by Western blotting. (FIG. 4H) Cell invasion was examined by Transwell chamber assay with matrigel. (FIG. 4I) Starved HCT116 cells were treated SU (10 μM) for 1 h, followed by treatment with EpEX-His (50 nM) for 24 h. Phosphorylated GSK3β, active-β-catenin, and Snail were detected by Western blotting. (FIG. 4J) HCT116 cells were starved for 16 h, then treated with 50 nM EpEX-His for 24 min. AKT inhibitor LY294002 (25 μM), ERK inhibitor U0126 (20 μM), or PF-562271 (10 μM) were applied 1 h before EpEX treatment. Protein expression of phosphorylated GSK3β and Snail was examined by Western blotting. (FIG. 4K) HCT116 cells were starved for 16 h, then treated with 50 nM EpEX, and SU (10 μM), LY (25 μM), UO (20 μM) or PF (10 μM). Cell invasion was examined by Transwell chamber assay with matrigel. (FIG. 4L) Protein expression was analyzed by Western blotting in EpEX-His (50 nM) treated HCT116 cells after treatment with or without 2 μM GSK3β inhibitor (BIO) for 24 h. Quantification of the normalized protein expression in the right panel.
FIGS. 5A to 5I. EpEX promotes Snail protein stability through inhibition of ubiquitination-mediated proteasomal degradation. (FIG. 5A) The gene expression of EMT markers and regulators was detected by qRT-PCR in Wild-type (WT) or EpCAM knockout (KO) of HCT116 and HT29 cells. (FIG. 5B) Stability of Snail protein in WT or KO of HCT116 cells. Cells were treated with cyclohexamide (CHX) 100 μg/ml at the indicated intervals and subjected to Western blotting. (FIG. 5C) The protein expression of Snail was analyzed in WT or KO HCT116 cells by treating with or without […] MG132 (proteasome inhibitor) for 6 h, followed by Western blotting. (FIG. 5D) WT or KO HCT116 cells were treated with 10 μM MG132 for 6 h before cell collection. The lysates were subjected to immunoprecipitation using anti-Snail antibody and input. Western blotting was performed with the indicated antibodies to detect ubiquitinated Snail protein. (FIG. 5E) Stability of Snail protein in HCT116 cells after EpEX (50 nM) treatment for 24 h. Cells were treated with cyclohexamide (CHX; 100 μg/ml) for the indicated intervals and then subjected to Western blotting. (FIG. 5F) Expression of the gene encoding SNAIL was detected by qRT-PCR in HCT116 cells after EpEX (50 nM) treatment for 24 h. (FIG. 5G) The protein expression of Snail in HCT116 was analyzed cells by Western blotting after EpEX (50 nM) treatment for 24 h, and treatment with or without 10 μM MG132 (proteasome inhibitor) for 6 h. […]
Background: In western blotting, separated proteins are transferred to a membrane and probed.

Assay [2] shares this test system. Described as above. It counts as cell-based, human. This is another data set of the same source.

Peptide text beside a SMILES is read from it. * marks the point of attachment. Cbz = O=C(OCc1ccccc1)*

With `O=C1Nc2cc(Br)ccc2/C1=C1/Nc2ccccc2/C1=N\O` [BIO], the “active β-catenin and Snail protein expressions” value in assay [1] (HCT116, control and EpEX-His (50 nM) treated, 2 μM BIO 24 h, FIG. 4L) was “upregulated both in control and EpEX-treated cells”. In addition, the “active β-catenin and Snail proteins” value in assay [2] (EpAb2-6 and 2 μM BIO 24 h, FIG. 6H) was “increased”.

On to `CC(C)C[C@@H](C=O)NC(=O)[C@H](CC(C)C)NC(=O)[C@H](CC(C)C)NC(=O)OCc1ccccc1` [MG132] (Cbz-Leu-Leu-Leu-aldehyde), for which the “Snail steady-state protein levels” value in assay [1] (HCT116 with or without EpEX (50 nM, 24 h), 10 μM MG132 6 h, FIG. 5G) was “increased Snail steady-state protein levels”; in assay [1] (WT or EpCAM KO HCT116, for 6 h, FIG. 5C), “increased Snail steady-state protein levels”. The “Active β-catenin and Snail steady-state protein levels” value in assay [2] (10 μM MG132 and EpAb2-6 for 6 h, FIG. 6I) is “increased active β-catenin and Snail steady-state protein levels”.
